Among the data in ChEMBL document CHEMBL4043146, “Macrocyclic factor XIa inhibitors” (Bioorg Med Chem Lett, 2017) are Activity and Ki values, retold here.

The subject of one assay is Plasma. The assay is described as follows: Anticoagulant activity in human plasma assessed as concentration required to produce 50% increase in activated partial thromboplastin time relative to baseline control. In kind it is functional.
The target in another assay is Coagulation factor XI (Homo sapiens, UniProt P03951). The assay is described as follows: Inhibition of human F11a using peptide substrate by spectrophotometry.
Coagulation factor XI, sequence (P03951 19-387 limits assumed): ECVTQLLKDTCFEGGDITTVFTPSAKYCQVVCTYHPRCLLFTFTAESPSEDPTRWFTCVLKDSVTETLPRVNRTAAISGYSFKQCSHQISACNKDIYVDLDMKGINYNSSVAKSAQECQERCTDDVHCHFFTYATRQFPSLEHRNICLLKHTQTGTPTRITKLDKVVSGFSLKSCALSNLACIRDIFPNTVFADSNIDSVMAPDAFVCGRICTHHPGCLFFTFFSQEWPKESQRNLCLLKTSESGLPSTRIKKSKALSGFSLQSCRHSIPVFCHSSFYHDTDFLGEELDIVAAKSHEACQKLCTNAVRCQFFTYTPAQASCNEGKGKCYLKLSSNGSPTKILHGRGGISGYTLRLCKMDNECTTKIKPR
Coagulation factor XI, sequence (P03951 388-625 limits assumed): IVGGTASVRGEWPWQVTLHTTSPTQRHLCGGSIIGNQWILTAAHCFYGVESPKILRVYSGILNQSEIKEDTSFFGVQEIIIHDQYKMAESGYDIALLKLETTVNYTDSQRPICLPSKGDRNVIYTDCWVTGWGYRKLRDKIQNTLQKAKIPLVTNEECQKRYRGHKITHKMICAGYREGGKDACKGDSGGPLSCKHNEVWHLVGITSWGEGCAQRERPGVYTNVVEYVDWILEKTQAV
The nature of assay [1]: Binding affinity to trypsin (unknown origin). Also on record: species or system Homo sapiens.
The target in the next assay is Prothrombin (Homo sapiens, UniProt P00734). The assay is described as follows: Binding affinity to F2a (unknown origin).
A further assay deals with T1, Coagulation factor VII (Homo sapiens, UniProt P08709).
T1 sequence (P08709 whole entry): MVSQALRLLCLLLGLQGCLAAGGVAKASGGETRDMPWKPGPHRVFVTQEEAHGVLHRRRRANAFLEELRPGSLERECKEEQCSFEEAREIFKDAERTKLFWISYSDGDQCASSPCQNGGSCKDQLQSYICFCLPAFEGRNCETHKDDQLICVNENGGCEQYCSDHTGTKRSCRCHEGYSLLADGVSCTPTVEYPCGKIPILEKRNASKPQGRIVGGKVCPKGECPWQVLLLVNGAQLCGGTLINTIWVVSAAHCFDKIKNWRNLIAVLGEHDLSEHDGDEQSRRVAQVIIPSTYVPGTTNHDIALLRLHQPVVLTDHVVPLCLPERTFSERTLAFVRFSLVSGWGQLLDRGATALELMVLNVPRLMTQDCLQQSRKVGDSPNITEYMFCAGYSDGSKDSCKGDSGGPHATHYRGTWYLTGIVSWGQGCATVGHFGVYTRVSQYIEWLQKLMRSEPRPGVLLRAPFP
The assay is described as follows: Binding affinity to F7a (unknown origin).

The next assay addresses Coagulation factor X (Homo sapiens, UniProt P00742). The assay is described as follows: Binding affinity to F10a (unknown origin).

A word on the Ki: it is a measure of affinity in units of concentration, obtained from inhibition or displacement. High values mean lower affinity, low ones higher affinity.

Coagulation factor X, sequence (P00742 41-179 limits assumed): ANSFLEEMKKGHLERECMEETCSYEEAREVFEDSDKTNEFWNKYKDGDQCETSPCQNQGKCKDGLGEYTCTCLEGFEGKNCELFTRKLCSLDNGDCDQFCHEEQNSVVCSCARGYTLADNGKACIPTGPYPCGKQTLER
Coagulation factor X, sequence (P00742 235-488 limits assumed): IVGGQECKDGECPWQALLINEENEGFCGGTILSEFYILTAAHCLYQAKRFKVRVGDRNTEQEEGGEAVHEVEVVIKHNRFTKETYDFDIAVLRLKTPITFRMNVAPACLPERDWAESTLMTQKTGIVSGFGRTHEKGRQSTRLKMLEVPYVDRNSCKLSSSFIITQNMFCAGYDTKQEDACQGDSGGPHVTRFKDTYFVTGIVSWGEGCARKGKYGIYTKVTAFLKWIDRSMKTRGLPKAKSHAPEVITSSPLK

Turning to `COC(=O)Nc1ccc2c(c1)CCCCc1cccc(c1)C[C@H](NC(=O)/C=C/c1cc(Cl)ccc1-n1cnnn1)c1nc-2c(Cl)[nH]1`, the Activity in the assay on Plasma is 34 µM.
Consider `COC(=O)Nc1ccc2c(c1)NC(=O)CCc1cccc(n1)C[C@H](NC(=O)/C=C/c1cc(Cl)ccc1-n1cnnn1)c1nc-2c[nH]1`, for which the Ki at Coagulation factor XI amounted to 0.32 nM. Also, in the assay on Plasma, the Activity was in the range of 0.27 to 0.4 µM.
The compound `COC(=O)Nc1ccc2c(c1)CNC(=O)c1cccc(c1)C[C@H](NC(=O)/C=C/c1cc(Cl)ccc1-n1cnnn1)c1nc-2c[nH]1` returned a Ki on Coagulation factor XI of 500 nM.
On Coagulation factor XI, `COC(=O)Nc1ccc2c(c1)NC(=O)CCc1cc(ccc1F)C[C@H](NC(=O)/C=C/c1cc(Cl)ccc1-n1cnnn1)c1nc-2c[nH]1` had a Ki of 0.53 nM. Moreover, the Activity in the assay with Plasma was 1.4 µM.
With `COC(=O)Nc1ccc2c(c1)CNC(=O)c1ccc(cc1)C[C@H](NC(=O)/C=C/c1cc(Cl)ccc1-n1cnnn1)c1nc-2c[nH]1`, the affinity on Coagulation factor XI corresponds to a Ki of 6400 nM.
With `COC(=O)Nc1ccc2c(c1)NC(=O)CCc1cccc(c1)C[C@H](NC(=O)/C=C/c1cc(Cl)ccc1-n1cnnn1)c1nc-2c[nH]1`, the Ki on Coagulation factor XI was 1.5 nM. The Activity in the assay on Plasma worked out at 2.1 µM.
For the compound `COC(=O)Nc1ccc2c(c1)NC(=O)CCc1nc(ccc1F)C[C@H](NC(=O)/C=C/c1cc(Cl)ccc1-n1cnnn1)c1nc-2c[nH]1`, the Ki is 670 nM in assay [1]; greater than 13000 nM on Prothrombin; 1100 nM on Coagulation factor VII; 0.02 nM on Coagulation factor XI; 1400 nM at Coagulation factor X. The Activity in the assay with Plasma stood at 0.27 µM.
In turn, `COC(=O)Nc1ccc2c(c1)CNC(=O)c1cccc(c1)C[C@H](NC(=O)/C=C/c1cc(Cl)ccc1-n1cnnn1)c1nc-2c(Cl)[nH]1` returned an inhibition constant (Ki) on Coagulation factor XI of 92 nM.
Consider `COC(=O)Nc1ccc2c(c1)CCCCc1cccc(c1)C[C@H](NC(=O)/C=C/c1cc(Cl)ccc1-n1cnnn1)c1nc-2c[nH]1`, for which the affinity on Coagulation factor XI, expressed as Ki, was 17 nM. In addition, the Activity in the assay on Plasma was determined as 23 µM.
